Test results reported in the Kinase Knowledgebase extract (Sharma et al. 2016).

molecular target: EGFR (UniProt P00533)
Sequence (P00533 whole entry, looked up): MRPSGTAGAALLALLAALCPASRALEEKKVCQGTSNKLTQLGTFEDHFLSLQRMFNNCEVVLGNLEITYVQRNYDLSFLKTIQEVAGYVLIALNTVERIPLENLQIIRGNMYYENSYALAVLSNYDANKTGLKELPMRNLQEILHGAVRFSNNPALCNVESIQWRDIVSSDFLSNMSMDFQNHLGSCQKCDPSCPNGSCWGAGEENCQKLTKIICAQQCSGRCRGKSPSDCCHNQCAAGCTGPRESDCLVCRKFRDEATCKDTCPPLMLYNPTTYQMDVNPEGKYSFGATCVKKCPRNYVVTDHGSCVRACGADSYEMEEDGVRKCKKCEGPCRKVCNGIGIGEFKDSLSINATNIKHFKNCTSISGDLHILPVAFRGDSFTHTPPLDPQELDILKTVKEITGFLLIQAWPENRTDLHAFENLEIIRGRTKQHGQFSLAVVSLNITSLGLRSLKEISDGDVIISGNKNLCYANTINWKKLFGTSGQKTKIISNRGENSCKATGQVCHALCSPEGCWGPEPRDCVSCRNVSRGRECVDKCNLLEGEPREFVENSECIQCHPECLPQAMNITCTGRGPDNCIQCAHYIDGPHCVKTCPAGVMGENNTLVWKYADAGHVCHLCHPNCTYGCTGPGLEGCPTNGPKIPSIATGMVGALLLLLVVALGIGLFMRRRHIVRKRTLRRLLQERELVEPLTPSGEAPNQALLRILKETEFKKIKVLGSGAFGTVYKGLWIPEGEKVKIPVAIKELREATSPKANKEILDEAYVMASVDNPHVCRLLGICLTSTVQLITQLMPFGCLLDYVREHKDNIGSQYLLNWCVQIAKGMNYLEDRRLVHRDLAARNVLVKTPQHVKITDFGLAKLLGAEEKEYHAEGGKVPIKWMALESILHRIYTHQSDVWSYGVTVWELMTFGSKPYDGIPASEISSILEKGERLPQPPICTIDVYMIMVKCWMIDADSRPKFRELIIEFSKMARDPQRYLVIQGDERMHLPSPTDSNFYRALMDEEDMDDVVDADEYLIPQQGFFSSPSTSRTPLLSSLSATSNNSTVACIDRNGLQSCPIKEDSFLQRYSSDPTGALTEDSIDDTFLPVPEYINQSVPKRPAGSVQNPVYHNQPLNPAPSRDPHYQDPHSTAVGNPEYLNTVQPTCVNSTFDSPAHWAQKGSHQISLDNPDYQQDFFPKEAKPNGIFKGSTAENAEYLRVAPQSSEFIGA

Question: Which inhibition does the source give for `NCCC(=O)N[C@@H](Cc1cc(O)c(O)c(SC[C@H](N)C(=O)N[C@@H](CCC(=O)O)C(=O)O)c1)C(=O)O` here?
Answer: 0

Question: Which inhibition does the source give for `NCCc1cc(O)c(O)c(SC[C@H](N)C(=O)NCC(=O)O)c1` here?
Answer: 19.6

Question: For `NCCc1cc(O)c(O)c(SC[C@H](N)C(=O)O)c1`, which inhibition is on record?
Answer: 16.3

Question: For `NCCC(=O)N[C@@H](Cc1cc(O)c(O)c(SC[C@H](N)C(=O)NCC(=O)O)c1)C(=O)O`, which inhibition is on record?
Answer: 0

Question: For `NCCc1cc(O)c(O)c(SC[C@H](N)C(=O)N[C@@H](CCC(=O)O)C(=O)O)c1`, which inhibition is on record?
Answer: 9.3

Question: For `N[C@@H](Cc1cc(O)c(O)c(SC[C@H](N)C(=O)N[C@@H](CCC(=O)O)C(=O)O)c1)C(=O)O`, which inhibition is on record?
Answer: 0

Question: For `NCCC(=O)NCCc1cc(O)c(O)c(SC[C@H](N)C(=O)O)c1`, which inhibition is on record?
Answer: 12.1

Question: `N[C@@H](CSc1cc(C[C@H](N)C(=O)O)cc(O)c1O)C(=O)O` was tested. Which inhibition did it give?
Answer: 2.9

Question: How did the inhibition turn out when `NCCc1cc(O)c(O)c(Sc2nc[nH]n2)c1` was run?
Answer: 15.9

Question: Which inhibition does the source give for `NCCC(=O)NCCc1cc(O)c(O)c(SC[C@H](N)C(=O)NCC(=O)O)c1` here?
Answer: 7.9

Question: With `NCCC(=O)NCCc1cc(O)c(O)c(SC[C@H](NC(=O)CC[C@H](N)C(=O)O)C(=O)NCC(=O)O)c1` as the compound, how does the inhibition read?
Answer: 4.9

Question: With `N[C@@H](Cc1cc(O)c(O)c(Sc2nc[nH]n2)c1)C(=O)O` as the compound, how does the inhibition read?
Answer: 17

Question: For `N[C@@H](Cc1cc(O)c(O)c(Sc2nc3ccccc3[nH]2)c1)C(=O)O`, which inhibition is on record?
Answer: 11.7

Question: Which inhibition does the source give for `NCCC(=O)NCCc1cc(O)c(O)c(SC[C@H](N)C(=O)N[C@@H](CCC(=O)O)C(=O)O)c1` here?
Answer: 52.1

Question: For `N[C@@H](Cc1cc(O)c(O)c(SC[C@H](N)C(=O)NCC(=O)O)c1)C(=O)O`, which inhibition is on record?
Answer: 2.5

Question: For `NCCc1cc(O)c(O)c(Sc2nc3ccccc3[nH]2)c1`, which inhibition is on record?
Answer: 15.1

Question: `NCCC(=O)N[C@@H](Cc1cc(O)c(O)c(SC[C@H](NC(=O)CC[C@H](N)C(=O)O)C(=O)NCC(=O)O)c1)C(=O)O` was tested. Which inhibition did it give?
Answer: 2.2
